Tests used:
[1] = target: T1, progesterone receptors (PR) (Homo sapiens, UniProt P06401); assay: Binding to other steroid hormone receptors with recombinantly produced receptors: progesterone receptor
T1 construct: made in house
T1 sequence (P06401 1-933): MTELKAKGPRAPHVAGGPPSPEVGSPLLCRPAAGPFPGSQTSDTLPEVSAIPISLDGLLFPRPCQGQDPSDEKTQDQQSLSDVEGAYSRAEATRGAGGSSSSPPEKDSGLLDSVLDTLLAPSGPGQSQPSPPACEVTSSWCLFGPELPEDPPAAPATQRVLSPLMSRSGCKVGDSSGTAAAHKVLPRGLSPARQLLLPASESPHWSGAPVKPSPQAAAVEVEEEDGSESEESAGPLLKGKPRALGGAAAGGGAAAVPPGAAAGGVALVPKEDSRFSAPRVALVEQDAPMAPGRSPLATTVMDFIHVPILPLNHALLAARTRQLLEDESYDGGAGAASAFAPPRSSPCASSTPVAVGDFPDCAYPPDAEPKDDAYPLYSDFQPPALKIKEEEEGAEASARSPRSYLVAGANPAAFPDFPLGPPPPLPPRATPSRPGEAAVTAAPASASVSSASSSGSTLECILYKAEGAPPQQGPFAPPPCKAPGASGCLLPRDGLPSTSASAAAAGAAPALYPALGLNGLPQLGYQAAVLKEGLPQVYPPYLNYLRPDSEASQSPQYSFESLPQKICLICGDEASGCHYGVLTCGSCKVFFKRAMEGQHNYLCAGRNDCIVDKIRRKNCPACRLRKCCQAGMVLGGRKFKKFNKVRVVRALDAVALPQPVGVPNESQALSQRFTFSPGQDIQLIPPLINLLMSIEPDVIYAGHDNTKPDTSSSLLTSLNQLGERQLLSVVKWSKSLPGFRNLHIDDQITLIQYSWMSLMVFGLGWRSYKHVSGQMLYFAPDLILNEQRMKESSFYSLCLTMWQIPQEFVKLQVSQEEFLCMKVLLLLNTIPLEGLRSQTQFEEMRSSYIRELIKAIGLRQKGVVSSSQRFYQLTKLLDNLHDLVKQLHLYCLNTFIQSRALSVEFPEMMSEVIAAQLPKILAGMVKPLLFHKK
Excerpt: (§1) The binding of substances to the glucocorticoid receptor (GR) and other steroid hormone-receptors (mineral corticoid receptors (MR), progesterone receptors (PR) and androgen receptors (AR)) is examined with the aid of recombinantly produced receptors. Cytosol preparations of Sf9 cells, which had been infected with recombinant baculoviruses that code for the GR, are used for the binding tests. In comparison to the reference substance [^3H]-dexamethasone, the substances show a high affinity to the GR.

[2] = tested on: secretion of the cytokine IL-8, triggered by lipopolysaccharide (LPS), in the human monocyte cell line THP-1; assay: Inhibition of LPS-triggered secretion of the cytokine IL-8 in THP-1 cells (ELISA of supernatant); format: cell-based; details: LPS-triggered IL-8 secretion
Method: The concentration of the cytokines was determined in the supernatant by means of commercially available ELISA kits.

[3] = target: T2, glucocorticoid receptor (GR) (Homo sapiens, UniProt P04150); assay: Binding to the glucocorticoid receptor, recombinantly produced receptor, cytosol preparations of Sf9 cells, reference [3H]-dexamethasone; details: recombinant GR
T2 construct: made in house; host or cells: Sf9 cells infected with recombinant baculovirus (cytosol preparation)
T2 sequence (P04150 1-777): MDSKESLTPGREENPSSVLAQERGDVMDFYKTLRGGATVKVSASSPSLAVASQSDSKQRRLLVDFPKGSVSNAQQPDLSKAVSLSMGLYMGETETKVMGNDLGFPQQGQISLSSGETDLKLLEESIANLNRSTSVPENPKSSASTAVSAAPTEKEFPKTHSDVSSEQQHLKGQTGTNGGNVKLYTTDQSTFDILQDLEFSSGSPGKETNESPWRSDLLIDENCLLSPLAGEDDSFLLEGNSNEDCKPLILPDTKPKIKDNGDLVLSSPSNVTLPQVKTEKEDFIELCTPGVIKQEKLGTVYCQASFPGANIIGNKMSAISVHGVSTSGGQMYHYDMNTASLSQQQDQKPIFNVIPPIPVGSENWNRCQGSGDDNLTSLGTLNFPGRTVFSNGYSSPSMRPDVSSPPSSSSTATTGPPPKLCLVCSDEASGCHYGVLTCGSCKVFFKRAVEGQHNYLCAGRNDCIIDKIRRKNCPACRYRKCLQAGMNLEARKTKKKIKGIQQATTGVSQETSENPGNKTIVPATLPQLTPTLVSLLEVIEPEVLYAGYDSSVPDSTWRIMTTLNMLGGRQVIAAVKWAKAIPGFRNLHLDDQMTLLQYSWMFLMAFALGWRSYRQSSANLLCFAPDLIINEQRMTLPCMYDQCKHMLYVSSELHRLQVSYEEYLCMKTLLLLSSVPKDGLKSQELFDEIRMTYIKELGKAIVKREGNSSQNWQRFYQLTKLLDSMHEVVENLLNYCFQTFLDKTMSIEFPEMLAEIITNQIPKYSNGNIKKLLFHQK
Excerpt: as §1

- IC50 [1]: > 1000 nM
- IC50 ([2]; Homo sapiens, read-out: inhibition IC50(IL8)): 40 nM
- IC50 [3]: 86 nM
SMILES: Cc1ncc2c(NC3c4cc(C)c(F)c(O)c4C(C)(C)CC3(O)C(F)(F)F)ccc(F)c2n1 (racemic) [Example 285, 6-Fluoro-1-[(8-fluoro-2-methylquinazolin-5-yl)amino]-4,4,7-trimethyl-2-(trifluoromethyl)-1,2,3,4-tetrahydronaphthalene-2,5-diol]
- eff (IL8 inhibition) [2]: 79%

— US7659297B2, “Tetrahydronaphthalene derivatives, process for their production and their use as anti-inflammatory agents” (Bayer Schering Pharma, AG, priority 2003, dated 2010)
